Assay results published in article PMC6523444, “Antioxidant Activities of Alkyl Substituted Pyrazine Derivatives of Chalcones—In Vitro and In Silico Study” (Antioxidants, 2019).

Legend:
[1] = MTS cytotoxicity assay, overnight, HepG2; type: cell-based; conditions: human, HepG2 cells, concentration range 100–0.2 µM
Procedure: (§1) Adherent liver hepatocellular carcinoma cell line HepG2 (ATCC, HB-8065) and human acute monocytic leukemia cell line in suspension THP-1 (ATCC, TIB-202) were purchased from American Type Culture Collection (ATCC, Manassas, VA, USA). Cell lines were maintained in complete DMEM/F12 medium (Sigma, D8437, St. Louis, MO, USA) and complete RPMI1640 (Sigma, R7388, St. Louis, MO, USA) respectively, supplemented with 10% Fetal Calf Serum (FCS, Sigma, F7524, St. Louis, MO, USA) at 37 °C in 5% CO2 atmosphere.
(§2) A cytotoxicity assay was performed using MTS CellTiter 96 AQueous One Solution Cell Proliferation Assay (Promega, G3580, Madison, WI, USA). Double dilutions of compounds were prepared in the concentration range of 100–0.2 µM within microplate wells. In each well, 5 × 10^4 cells were added and the plates were incubated overnight at 37 °C in 5% CO2 atmosphere. Following this, 10 µL of MTS (3-(4,5-dimethylthiazol-2-yl)-5-(3-carboxymethoxyphenyl)-2-(4-sulfophenyl)-2H -tetrazolium) reagent was dispensed per well and the plates were incubated for 1–6 h at 37 °C in 5% CO2 atmosphere. Control wells consisted of media only (blank) or cells with 1% DMSO added (control). The absorbance was recorded at 490 nm using a Wallac Victor2 microplate reader (PerkinElmer, Waltham, MA, USA). Results were analyzed in GraphPad Prism software (GraphPad Software, San Diego, CA, USA).

[2] = MTS cytotoxicity assay, overnight, THP-1; type: cell-based, human; conditions: human, THP-1 cells, overnight, concentration range 100–0.2 µM
Procedure: as §1, §2

[3] = DPPH• radical scavenging assay; conditions: 100 µM DPPH•, 30 min, room temperature, dark; read-out: DPPH● radical scavenging (RS) activity IC50
Procedure: Vitamin C (Acros Organics, Geel, Belgium) was used as a standard antioxidant control and was prepared in the same way as tested compounds. Dilutions of tested compounds and vitamin C were prepared in a final concentration range of 1 mM–0.01 μM. One milliliter of compound solution was added to 1 mL of freshly prepared DPPH• solution (3.9 mg/50 mL ethanol; final concentration of 100 µM) and the reaction mixture was incubated in the dark at room temperature for 30 min. Absorbance was recorded at 540 nm using a 96-well Wallac Victor2 plate reader. Neutralization of DPPH• radical by a compound was calculated according to the following formula:RS activity (%) = [(A0 − A1)/A0] × 100(1) where A0/A1 is the control/sample absorbance. The results were averages of three measurements. The IC50 value was calculated using GraphPad Prism software (GraphPad Software, San Diego, CA, USA).

[4] = parameters: method as in doi:10.1627/jpi.51.298; conditions: oxygen atmosphere, 50 °C, compared with para-coumaric acid fragment; cited from earlier work
aldose reductase ALR2 = tested on: aldose reductase ALR2; parameters: method as in doi:10.1007/s00706-018-2146-6; conditions: cited from earlier work
[5] = tested on: cell lines A549, PC3, MCF-7, HT-29 and WRL68; parameters: method as in PMID 22634834; conditions: cited from earlier work
THP-1 = experiment: MTS cytotoxicity assay, overnight, THP-1; type: cell-based, human; conditions: up to 100 μM overnight
Procedure: as §1, §2

[6] = tested on: THP-1 cells treated by H2O2; experiment: Growth of THP-1 cells pre- or post-treated with H2O2, trypan blue exclusion assay; type: cell-based, human; conditions: for Effect against cytotoxic / pro-oxidative activity of H2O2 on THP-1 cells: compound at DPPH• IC50 concentration, before or after 5 mM H2O2; for Recovery of THP-1 cells after initial damage: from the 48 h point, H2O2 plus compound
Procedure: The substances without cytotoxic effects and with RS activity were tested for antioxidant potential at the cellular level using THP-1 cells treated by H2O2 [28]. The cells were exposed to the IC50 concentrations of the compounds determined by the DPPH• assay. Compounds were applied 30 min either before or after exposure to 5 mM of H2O2, which is equivalent to the cytotoxic ED50 dose of H2O2 for the THP-1 cells. The cell growth was analyzed every 24 h, via the trypan blue exclusion assay using a Bürker-Türk hemocytometer (Brand GMBH + CO KG, Wertheim, Germany), during a 4-day period. All assays were carried out in triplicates. The comparison of mean values was done by the two-tailed Student’s t-test.

THP-1 cells = conditions: cited from earlier work

IC50 [3] [µM]	SMILES	IC50 [1] [µM]	IC50 [2] [µM]	further results
> 1000	O=C(/C=C/c1ccccc1O)c1ccccc1 [Compound 1]	> 100	70	
> 1000	O=C(/C=C/c1ccccc1O)c1cnccn1 [Compound 1a]	> 100	40	RS activity in styrene auto-oxidation [4]: significant RS activity
	CCCc1cnc(C(=O)/C=C/c2ccccc2O)cn1 [Compound 1b]	> 100	> 100	
> 1000	CC(C)c1cnc(C(=O)/C=C/c2ccccc2O)cn1 [Compound 1c]	> 100	96	
> 1000	CCCCc1cnc(C(=O)/C=C/c2ccccc2O)cn1 [Compound 1d]	86	27	
	CC(C)Cc1cnc(C(=O)/C=C/c2ccccc2O)cn1 [Compound 1e]	> 100	94	
	CC(C)(C)c1cnc(C(=O)/C=C/c2ccccc2O)cn1 [Compound 1f]	> 100	> 100	
> 1000	O=C(/C=C/c1cccc(O)c1)c1ccccc1 [Compound 2]	> 100	51	
> 1000	O=C(/C=C/c1cccc(O)c1)c1cnccn1 [Compound 2a]	100	50	ALR2 inhibition activity (aldose reductase ALR2): moderate ALR2 inhibition activity
	CCCc1cnc(C(=O)/C=C/c2cccc(O)c2)cn1 [Compound 2b]	> 100	48	
> 1000	CC(C)c1cnc(C(=O)/C=C/c2cccc(O)c2)cn1 [Compound 2c]	97	83	
> 1000	CCCCc1cnc(C(=O)/C=C/c2cccc(O)c2)cn1 [Compound 2d]	> 100	67	
	CC(C)Cc1cnc(C(=O)/C=C/c2cccc(O)c2)cn1 [Compound 2e]	> 100	> 100	
	CC(C)(C)c1cnc(C(=O)/C=C/c2cccc(O)c2)cn1 [Compound 2f]	> 100	> 100	
> 1000	O=C(/C=C/c1ccc(O)cc1)c1ccccc1 [Compound 3]	> 100	> 100	ALR2 inhibition activity (aldose reductase ALR2): comparable ALR2 inhibition; Cytotoxicity against A549, PC3, MCF-7, HT-29 and WRL68 [5]: significant cytotoxicity
> 1000	O=C(/C=C/c1ccc(O)cc1)c1cnccn1 [Compound 3a]	> 100	97	ALR2 inhibition activity (aldose reductase ALR2): moderate ALR2 inhibition activity; RS activity in styrene auto-oxidation [4]: significant RS activity
	CCCc1cnc(C(=O)/C=C/c2ccc(O)cc2)cn1 [Compound 3b]	> 100	94	
> 1000	CC(C)c1cnc(C(=O)/C=C/c2ccc(O)cc2)cn1 [Compound 3c]	> 100	78	
> 1000	CCCCc1cnc(C(=O)/C=C/c2ccc(O)cc2)cn1 [Compound 3d]	> 100	83	
	CC(C)Cc1cnc(C(=O)/C=C/c2ccc(O)cc2)cn1 [Compound 3e]	> 100	> 100	
	CC(C)(C)c1cnc(C(=O)/C=C/c2ccc(O)cc2)cn1 [Compound 3f]	> 100	> 100	
	COc1cc(/C=C/C(=O)c2ccccc2)ccc1O [Compound 4]	> 100	> 100	
186	COc1cc(/C=C/C(=O)c2cnccn2)ccc1O [Compound 4a]	> 100	> 100	Cytotoxicity on THP-1 cells, in words (THP-1): non-toxic; Effect against cytotoxic / pro-oxidative activity of H2O2 on THP-1 cells [6]: lowest effect; RS activity in styrene auto-oxidation [4]: significant RS activity
39	COc1cc(/C=C/C(=O)c2cnc(C(C)C)cn2)ccc1O [Compound 4c]	> 100	> 100	Cytotoxicity on THP-1 cells, in words (THP-1): non-toxic; Attenuation of H2O2 effect on THP-1 cells, compound added before H2O2 ([6]; compound at DPPH• IC50 concentration 30 min before 5 mM H2O2, 4 days): most efficient reduction of cytotoxic effect of H2O2; Effect against cytotoxic / pro-oxidative activity of H2O2 on THP-1 cells [6]: greater attenuation of H2O2 effects; Recovery of THP-1 cells after initial damage [6]: considerably greater
46	COc1cc(/C=C/C(=O)c2cnc(CC(C)C)cn2)ccc1O [Compound 4e]	> 100	> 100	Cytotoxicity on THP-1 cells, in words (THP-1): non-toxic; Effect of the pure substance on the growth of THP-1 cells ([6]; compound alone at its DPPH• IC50 concentration, 96 h, Figure 2a): no considerable effects; Effect against cytotoxic / pro-oxidative activity of H2O2 on THP-1 cells [6]: greater attenuation of H2O2 effects; Recovery of THP-1 cells after initial damage [6]: considerably greater
	COc1cc(/C=C/C(=O)c2cnc(C(C)(C)C)cn2)ccc1O [Compound 4f]	> 100	36	
	OO [Compound H2O2, hydrogen peroxide]			Cytotoxic ED50 dose for THP-1 cells (THP-1 cells): 5000 µM
